From US12332244B2, “Composition for diagnosing diseases associated with COX2 overexpression and screening method therefor” (KYUNGPOOK NATIONAL UNIVERSITY INDUSTRY-ACADEMIC COOPERATION …, priority 2018, dated 2025)

How the values were obtained:
wild type COX2 = biological target: T1, wild type COX2 (Homo sapiens, UniProt P35354); experiment: Filter binding assay / enzymatic analysis of COX2, wild type; details: [14C]N-acetyl sphingosine binding to wild-type COX2, saturation plot; FIG. 3
T1 sequence (P35354 18-604): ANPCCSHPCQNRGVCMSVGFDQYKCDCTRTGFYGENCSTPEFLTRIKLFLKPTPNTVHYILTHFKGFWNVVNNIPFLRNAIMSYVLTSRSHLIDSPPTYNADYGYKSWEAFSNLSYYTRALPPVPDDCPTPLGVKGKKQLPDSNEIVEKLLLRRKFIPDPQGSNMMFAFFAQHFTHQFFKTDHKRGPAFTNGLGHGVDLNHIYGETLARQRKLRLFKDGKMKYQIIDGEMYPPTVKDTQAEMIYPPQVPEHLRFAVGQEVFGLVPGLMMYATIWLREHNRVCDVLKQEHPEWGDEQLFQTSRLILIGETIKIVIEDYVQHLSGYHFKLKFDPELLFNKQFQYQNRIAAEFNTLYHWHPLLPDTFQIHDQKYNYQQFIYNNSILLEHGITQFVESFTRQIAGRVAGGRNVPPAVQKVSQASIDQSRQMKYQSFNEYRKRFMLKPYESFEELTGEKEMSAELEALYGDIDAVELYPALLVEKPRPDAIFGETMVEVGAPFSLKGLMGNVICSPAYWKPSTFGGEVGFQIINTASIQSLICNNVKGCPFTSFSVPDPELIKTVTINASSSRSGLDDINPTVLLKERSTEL
Experimental: The binding activity of wild type COX2 or mutant COX2 (N181A, T564A, S565A, S567A) and N-acetyl sphingosine (N-AS) was analyzed by filter binding assay (Nat Commun. 2018 Apr. 16; 9(1):1479).
The binding rate (Vbinding) of [^14C]N-acetyl sphingosine (American Radiolabeled Chemicals, ARC1024) to wild-type COX2 and mutant COX2 (N181A, T564A, S565A, S567A) was expressed as the concentration of N-acetyl sphingosine. […] By using the calculated Kcat and KM, Kcat/KM (catalytic efficiency), which has been widely used as a measure of enzyme performance, was calculated from wild-type COX2 and mutant-type COX2 (N181A, T564A, S565A, S567A).

[1] = Brain distribution after oral or intravenous administration to normal mice; format: in vivo, mouse; details: for Kp: mouse, brain, FIG. 4C
Experimental: FIGS. 4A to 4C illustrate a result of showing a concentration remaining in the brain for each time period after oral (p.o. 10 mg/kg) or intravenous administration (i.v. 1 mg/kg) of N-acetyl sphingosine to normal mice (FIG. 4A), a result of showing a concentration remaining in the brain after 24 hours (FIG. 4B), and a pharmacokinetic test analysis result for a brain distribution (FIG. 4C) (n=3/group).
In order to apply the compounds of the present invention to the diagnosis of degenerative brain diseases, it is important to distribute the compounds well to the brain after administration. To confirm this, the N-AS was administered orally (10 mg/kg) or through tail vein (1 mg/kg), and then the brain was extracted by time to measure the concentration of N-AS, and after 24 hours, the brain was extracted to measure the concentration of the remaining N-AS.

[2] = biological target: T2, COX2 protein in microglia (Mus musculus, UniProt Q05769); experiment: [14C] bound to COX2 immunoprecipitated from microglia after oral [14C]N-acetyl sphingosine; format: in vivo; details: 5-month-old APP/PS1 Alzheimer's animal model compared to control (WT); 10 μCi oral; after 1 hour; FIG. 6
T2 construct: from tissue; host or cells: microglia isolated from the cerebrum of wild-type and APP/PS1 mice (C57BL/6 background)
T2 sequence (Q05769 18-604): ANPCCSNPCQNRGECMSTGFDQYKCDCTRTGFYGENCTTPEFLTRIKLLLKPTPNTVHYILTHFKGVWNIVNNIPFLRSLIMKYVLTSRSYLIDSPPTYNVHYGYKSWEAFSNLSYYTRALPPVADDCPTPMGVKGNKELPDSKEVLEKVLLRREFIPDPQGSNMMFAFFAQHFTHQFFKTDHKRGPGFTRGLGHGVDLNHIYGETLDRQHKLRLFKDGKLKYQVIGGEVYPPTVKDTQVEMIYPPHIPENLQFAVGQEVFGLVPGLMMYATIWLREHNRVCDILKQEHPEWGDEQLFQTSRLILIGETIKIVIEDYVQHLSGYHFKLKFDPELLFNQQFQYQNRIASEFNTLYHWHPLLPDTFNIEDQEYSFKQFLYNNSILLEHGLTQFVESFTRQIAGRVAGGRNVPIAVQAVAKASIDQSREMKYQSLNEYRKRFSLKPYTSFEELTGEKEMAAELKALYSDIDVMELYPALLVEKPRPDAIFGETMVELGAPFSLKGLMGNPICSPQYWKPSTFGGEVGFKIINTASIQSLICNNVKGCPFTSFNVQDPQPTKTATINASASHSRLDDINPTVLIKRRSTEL
Excerpt: Mouse experiments have been approved by the Kyungpook National University Institutional Animal Care and Use Committee (IACUC). A transgenic mouse line overexpressing APPswe (hAPP695swe) or PS1 (presenilin-1M146V) based on C57BL/6 mice (Charles River, UK) was used [Hereinafter, “APP mouse”: refers to a mouse overexpressing APPswe, “PS1 mouse”: refers to a mouse overexpressing presenilin-1M146V; GlaxoSmithKline]
After oral administration of 10 μCi of [^14C]N-acetyl sphingosine (American Radiolabeled Chemicals, ARC1024) to 5-month-old wild-type and APP/PS1 mice, microglia were isolated from the cerebra of the mice after 1 hour.
(§1) The COX2 protein of isolated microglia and neuroblastoma SH-SY5Y were isolated by immunoprecipitation, and then liquid scintillation counting was performed on [^14C].
After 1 hour, the COX2 in microglia was isolated from the control and the Alzheimer's animal model by immunoprecipitation, and the amount of COX2 labeled with [^14C] was confirmed.

[3] = biological target: T3, COX2 protein in neuroblastoma SH-SY5Y (Homo sapiens, UniProt P35354); experiment: [14C] bound to COX2 immunoprecipitated from neuroblastoma SH-SY5Y cells treated with [14C]N-acetyl sphingosine; format: cell-based; details: neuroblastoma SH-SY5Y compared to control; 2 μCi; after 1 hour; FIG. 8
T3 construct: endogenous in cells; host or cells: SH-SY5Y neuroblastoma cells
T3 sequence (P35354 18-604): T1 sequence (P35354 18-604)
Experimental: In addition, neuroblastoma SH-SY5Y was treated with 2 μCi of [^14C]N-acetyl sphingosine (American Radiolabeled Chemicals, ARC1024) for 1 hour, and then cells were collected.
as §1
In other words, [^14C]N-acetyl sphingosine ([^14C]N-AS), in which carbon of N-AS strongly binding to COX2 was substituted with an isotope, was treated to the cancer cells (2 μCi). After 1 hour, the COX2 was isolated from the control and the cancer cells, neuroblastoma SH-SY5Y by immunoprecipitation, and the amount of COX2 labeled with [^14C] was confirmed.

Kcat (wild type COX2) [s⁻¹]	Kp ([1]; intravenous, tail vein administration 1 mg/kg)	Kp ([1]; oral administration 10 mg/kg)	concentration of N-AS in the brain ([1]; oral 10 mg/kg or tail vein 1 mg/kg, by time and after 24 hours, FIGS. 4A and 4B)	SMILES	amount of [14C]-labeled COX2 in microglia [2]	amount of [14C]-labeled COX2 in cancer cells [3]
0.008	2.16	3.18	high	CCCCCCCCCCCCC/C=C/[C@@H](O)[C@H](CO)NC(C)=O [N-AS, N-acetyl sphingosine]	–	–
–	–	–	–	CCCCCCCCCCCCC/C=C/[C@@H](O)[C@H](CO)N[14C](C)=O [[^14C]N-AS, [^14C]N-acetyl sphingosine]	increased	increased
